The values that follow come from ChEMBL document CHEMBL4393659, “Insights into the chemistry and therapeutic potential of furanones: A versatile pharmacophore” (Eur J Med Chem, 2019).

The subject of data set [1] is Rattus norvegicus. Briefly: Antiinflammatory activity in Wistar rat assessed as inhibition of carrageenan-induced edema measured upto 4 hrs. Format: functional. (In the carrageenan paw model, swelling and tenderness develop within hours.)
Data set [2] in a line: Acute toxicity in Swiss albino mouse assessed as reduction in mortality of animal at 200 to 800 mg/kg , ip observed for 8 days. Format: organism-based. To be noted: in vivo.
For data set [3], the system named is Candida albicans. The data set can be described thus: Antifungal activity against Candida albicans ATCC 90028 assessed as reduction in fungal cell viability measured after 24 and 48 hrs by spectrophotometry. It counts as functional.
For a further data set, the system named is Salmonella typhimurium. Briefly: Inhibition of biofilm formation in Salmonella enterica subsp. enterica serovar Typhimurium 14028S incubated for 48 hrs by crystal violet staining based assay. Format: functional, organism-based.
Data set [4] concerns Mus musculus. The data set can be described thus: Anticonvulsant activity in ip dosed mouse assessed as reduction in PTZ-induced seizures pretreated for 30 mins followed by PTZ addition. Format: functional.
For data set [5], the system named is Mus musculus. The data set can be described thus: Anticonvulsant activity in ip dosed CF-1 mouse assessed as protection against PTZ-induced seizures measured after 30 mins […]. Format: functional.
In data set [6] the target is GABA-A receptor; anion channel. The data set can be described thus: Displacement of [35S]TBPS from GABAA (unknown origin) incubated for 90 mins by scintillation counting method. It counts as protein-complex assay, Homo sapiens. In general terms: In a radioligand displacement assay an active substance lowers the binding of a labelled ligand.
The target in data set [7] is GABA-A receptor; alpha-1/beta-2/gamma-2 (Homo sapiens) (UniProt P14867+P47870+P18507). Briefly: Positive allosteric modulation of recombinant GABAA alpha1beta2gamma2 (unknown origin) expressed in Xenopus laevis oocytes assessed as increase GABA-stimulated current amplitude at 200 uM by electrophysiological two-electrode voltage clamp method. Format: cell-based. For orientation: Two-electrode voltage clamp is typically applied to oocytes expressing channels or transporters.

For data set [8], the system named is Aspergillus fumigatus. The data set can be described thus: Antifungal activity against Aspergillus fumigatus assessed as reduction in fungal cell viability by broth dilution method. Format: functional.
For a further data set, the system named is Lichtheimia corymbifera. Briefly: Antifungal activity against Absidia corymbifera assessed as reduction in fungal cell viability by broth dilution method. It counts as functional.
Data set [9] deals with Aspergillus fumigatus. Briefly: Antifungal activity against Aspergillus fumigatus assessed as reduction in fungal cell viability measured after 24 and 48 hrs by broth microdilution method. Format: functional.
The target of data set [10] is Prostaglandin G/H synthase 2 (Homo sapiens, UniProt P35354). The data set can be described thus: Inhibition of recombinant human COX2 expressed in baculovirus infected Sf9 cells.
Data set [11] has as its system Mus musculus. Briefly: Analgesic activity in Swiss albino mouse assessed as inhibition of acetic acid induced writhing at 20 mg/kg , po incubated for 3 hrs followed by acetic acid administered and observed for 5 to 15 mins relative to control. Format: functional.
The subject of data set [12] is Rattus norvegicus. Briefly: Antiinflammatory activity in Wistar albino rat assessed as inhibition of carrageenan-induced paw edema at 20 mg/kg , po incubated for 30 mins followed by carrageenan addition and measured after 3 hrs by plethysmometry relative to control. Format: functional.
The subject of data set [13] is Rattus norvegicus. The data set can be described thus: Antiinflammatory activity in albino rat assessed as inhibition of carrageenan-induced paw edema by measuring mercury displacement at 20 mg/kg , po relative to control. Format: functional.
Data set [14] has as its system Candida albicans. The data set can be described thus: Antifungal activity against Candida albicans assessed as reduction in fungal cell viability incubated for 48 hrs by broth microdilution method. Format: functional.
In the next data set the test system is Pseudomonas aeruginosa. The data set can be described thus: Antibacterial activity against Pseudomonas aeruginosa NCLM-2035 assessed as reduction in bacterial cell viability incubated for 24 hrs by broth microdilution method. It counts as functional. To be noted: NCLM-2035, 24 h.
Data set [15] relates to Escherichia coli. Briefly: Antibacterial activity against Escherichia coli ATCC 8739 assessed as reduction in bacterial cell viability incubated for 24 hrs by broth microdilution method. To be noted: ATCC 8739, 24 h. Format: functional.
Another data set has as its system Aspergillus niger. The data set can be described thus: Antifungal activity against Aspergillus niger assessed as reduction in fungal cell viability incubated for 48 hrs by broth microdilution method. Format: functional.
Data set [16] relates to Staphylococcus aureus. The data set can be described thus: Antibacterial activity against Staphylococcus aureus ATCC 29737 assessed as reduction in bacterial cell viability incubated for 24 hrs by broth microdilution method. To be noted: ATCC 29737, 24 h. It counts as functional.
Another data set relates to Rhizopus arrhizus. Briefly: Antifungal activity against Rhizopus oryzae assessed as reduction in fungal cell viability incubated for 48 hrs by broth microdilution method. Format: functional.
The subject of data set [17] is Escherichia coli. Briefly: Antibacterial activity against Escherichia coli. Format: functional.
The subject of data set [18] is Staphylococcus aureus. Briefly: Antibacterial activity against Staphylococcus aureus. Format: functional.
Data set [19] is filed under the species Rattus norvegicus. Briefly: Antiarthritic activity in adjuvant-induced Sprague-Dawley rat. Format: functional.
Data set [20] is described as follows: Ulcerogenicity in Wistar rat assessed as gastric lesions by measuring ulcer severity index at 60 mg/kg , po measured after 17 hrs relative to ibuprofen. Format: toxicity, organism-based. To be noted: in vivo.

≈ marks a conversion by molar mass, not a printed value.

Sequence of Prostaglandin G/H synthase 2 (P35354 whole entry): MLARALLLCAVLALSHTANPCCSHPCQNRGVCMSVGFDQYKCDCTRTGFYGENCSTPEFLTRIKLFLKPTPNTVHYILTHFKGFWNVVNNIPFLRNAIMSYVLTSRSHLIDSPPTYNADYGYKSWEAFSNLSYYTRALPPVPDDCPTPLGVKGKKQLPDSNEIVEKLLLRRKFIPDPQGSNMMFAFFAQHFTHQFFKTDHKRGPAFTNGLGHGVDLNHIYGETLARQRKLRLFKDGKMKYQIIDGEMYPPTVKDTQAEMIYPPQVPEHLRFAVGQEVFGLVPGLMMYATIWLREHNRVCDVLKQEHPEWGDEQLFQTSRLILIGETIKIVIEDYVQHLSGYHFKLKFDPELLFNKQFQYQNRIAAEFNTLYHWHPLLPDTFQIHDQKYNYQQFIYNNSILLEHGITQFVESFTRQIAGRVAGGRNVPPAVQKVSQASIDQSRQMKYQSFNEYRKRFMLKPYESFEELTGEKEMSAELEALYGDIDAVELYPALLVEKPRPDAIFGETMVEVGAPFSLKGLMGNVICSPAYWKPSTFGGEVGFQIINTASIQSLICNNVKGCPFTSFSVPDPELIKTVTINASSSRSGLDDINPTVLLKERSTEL

In the case of `O=C1OC(c2ccc3ccccc3c2)=C/C1=C\c1cc2ccccc2nc1Cl`, the “inhibition (INH)” value in the data set on Rattus norvegicus [1] is reported as 56 - 63%.

For orientation: LD50 means the dose at which mortality reaches 50%. With `COc1cc(C2OC(=O)CC2C(C)=O)cc(OC)c1O` (centres undefined), the LD50 at 192 h in data set [2] was determined as 200 mg/kg.

As usually defined, the MIC is the lowest concentration found to suppress growth. With `CC(=O)OCC1C=C(c2ccc(Br)cc2)C(=O)O1` (centres undefined), the MIC with Candida albicans [3] is 0.5 µg/mL (≈ 1.61 µM).

One may read the IC50 as the midpoint of a concentration-inhibition curve. In the data set on Salmonella typhimurium, `O=C1C=C(Br)/C(=C/Br)O1` had a concentration for half-maximal inhibition (IC50) of 10 µM.

As a reminder, the ED50 is the midpoint of the dose-response relation. Consider `CCC1(CC)CC(CCOC(=O)c2ccc(C)cc2)OC1=O` (centres undefined), for which the ED50 in the data set with Mus musculus [4] is 89.9 to 285 mg/kg.

On to `CCC1(C)CC(C)(C(F)(F)F)OC1=O` (centres undefined), for which the CD50 with Mus musculus [5] worked out at 47 mg/kg. The IC50 in [6] is 224 µM.

For the molecule `C=CCOC(=O)NC1COC(=O)C1(CCC)CCC` (centres undefined), the Activity in data set [7] is 420%.

For the molecule `CC(=O)N1CCN(c2ccc(OCC3COC(Cn4ccnc4)(c4ccc(Cl)cc4Cl)O3)cc2)CC1` (centres undefined) [KETOCONAZOLE], the MIC in the data set with Aspergillus fumigatus [8] and in the data set on Lichtheimia corymbifera was 16.6 µg/mL (≈ 31.2 µM) in each case.

On to `CC(C)(C)C(=O)OCC1C=C(c2ccc(Cl)c(Cl)c2)C(=O)O1` (centres undefined), for which the minimum inhibitory concentration (MIC) in the data set with Aspergillus fumigatus [9] worked out at 1.34 µg/mL (≈ 3.9 µM).

As to `CS(=O)(=O)c1ccc(C2=C3c4ccccc4CCC3OC2=O)cc1` (centres undefined), the IC50 in data set [10] was 0.5 to 0.6 µM.

`O=C1OC(c2ccc(-c3ccccc3)cc2)=C/C1=C\c1cc2ccc(Cl)cc2nc1Cl`: in the data set on Rattus norvegicus [1], the “inhibition (INH)” value is on record as 56 - 63%.

Consider `O=C1C=CC(=C(Br)Br)O1`, for which the IC50 in the data set on Salmonella typhimurium was 15 µM.

Regarding `Cc1ccc2cc(/C=C3\C=C(c4ccc5ccccc5c4)OC3=O)c(Cl)nc2c1`, in the data set with Rattus norvegicus [1], the “inhibition (INH)” value is listed as 56 - 63%.

Take `O=C1O[C@H]([C@@H](O)CO)C(O)=C1O` [ASCORBIC ACID]: the median lethal dose (LD50) at 192 h in data set [2] is over 800 mg/kg.

In general, inhibition in vivo refers to the drop in the measured response relative to a control, in per cent. On to `COc1ccc(/C=C2\C=C(c3ccc4ccccc4c3)OC2=O)cc1`, for which the inhibition in vivo at 20 mg/kg lay in the range of 70 to 74% with Mus musculus [11] and 74.8 to 89.7% in the data set with Rattus norvegicus [12].

Take `COc1cc(/C=C2/C=C(c3ccc(C)cc3C)OC2=O)cc(OC)c1OC`: in the data set with Rattus norvegicus [13], the inhibition in vivo at 20 mg/kg amounted to 48.4%.

Consider `O=C1OC(c2ccc3ccccc3c2)=C/C1=C\c1ccccc1[N+](=O)[O-]`, for which the values for the inhibition in vivo at 20 mg/kg in the data set on Mus musculus [11] and with Rattus norvegicus [12] were 70 to 74% and 74.8 to 89.7%, respectively.

As for `O=C1OC(c2ccc3ccccc3c2)=C/C1=C\c1cc2ccc(Cl)cc2nc1Cl`, the “inhibition (INH)” value with Rattus norvegicus [1] is 56 - 63%.

With `O=C1OC(c2ccc(Cl)cc2)=C/C1=C\c1ccc(Br)cc1`, the MIC in the data set on Candida albicans [14], in the data set with Pseudomonas aeruginosa, in the data set on Escherichia coli [15], in the data set with Aspergillus niger, in the data set on Staphylococcus aureus [16] and in the data set on Rhizopus arrhizus was 12.5 to 50 µg/mL (≈ 34.6 to 138 µM) throughout.

As for `Cc1ccc2c(c1)C1=C(c3ccc(S(C)(=O)=O)cc3)C(=O)OC1CC2` (centres undefined), the IC50 in data set [10] lay in the range of 0.5 to 0.6 µM.

Regarding `COC(=O)C(Cl)C1(Cl)OC(c2ccc(Cl)cc2)=C(Cl)C1=O` (centres undefined), the MIC in the data set on Escherichia coli [17] was 62.5 µg/mL (≈ 169 µM); in the data set with Staphylococcus aureus [18] it was 15.6 µg/mL (≈ 42.2 µM).

In the case of `CCCC1(CCC)C(=O)OCC1NC(=O)OCC` (centres undefined), in data set [7], the Activity stood at 426%.

For the molecule `Cc1ccc(-c2cc(C(F)(F)F)nn2-c2ccc(S(N)(=O)=O)cc2)cc1` [CELECOXIB], in the data set listed under Rattus norvegicus [19], the ED50 stood at 0.2 mg/kg/day.

In the case of `C[C@@H]1[C@H](O)[C@@H](C)/C=C/C=C/C=C/C=C/C=C/C=C/C=C/[C@H](O[C@@H]2O[C@H](C)[C@@H](O)[C@H](N)[C@@H]2O)C[C@@H]2O[C@](O)(C[C@@H](O)C[C@@H](O)[C@H](O)CC[C@@H](O)C[C@@H](O)CC(=O)O[C@H]1C)C[C@H](O)[C@H]2C(=O)O` [AMPHOTERICIN B], the MIC with Aspergillus fumigatus [9] is 0.5 µg/mL (≈ 0.541 µM).

The molecule `CCC1=C(Br)/C(=C/Br)OC1=O` had a half-inhibitory concentration (IC50) in the data set with Salmonella typhimurium of 50 µM.

Turning to `CC(C)Cc1ccc(C2=C/C(=C\c3ccc(F)cc3)C(=O)O2)cc1`, the UI in [20] is recorded as 0.1.

Regarding `O=C1OC(c2ccc(-c3ccccc3)cc2)=C/C1=C\c1cc2ccccc2nc1Cl`, the “inhibition (INH)” value with Rattus norvegicus [1] is 56 - 63%.

`CC(C1CCOC1=O)C(F)(F)F` (centres undefined): in the data set on Mus musculus [5], the CD50 amounted to 30 mg/kg. This molecule also displayed an IC50 in data set [6] of 142 µM.
